We go through six molecules from patent US7030245B2, “Antidepressant azahetorocyclylmethyl derivatives of 7,8-dihydro-6H-5-oxa-1-aza-phenathrene” (Wyeth, priority 2001, dated 2006).

Structures can show the parent of a compound that is named as a salt.

The target of series [1] is T1, serotonin transporter (Rattus norvegicus, UniProt P31652).
T1 construct: displace ^3H-paroxetine from male rat frontal cortical membranes; from tissue; host or cells: male rat frontal cortex membranes
Kind of series: 3H-paroxetine displacement, serotonin transporter affinity. In kind it is binding.

The target in series [2] is T2, human 5-HT1A receptors (Homo sapiens, UniProt P08908).
T2 construct: expressed in transfected cells; host or cells: CHO cells, stably transfected
T2 sequence (P08908 1-422): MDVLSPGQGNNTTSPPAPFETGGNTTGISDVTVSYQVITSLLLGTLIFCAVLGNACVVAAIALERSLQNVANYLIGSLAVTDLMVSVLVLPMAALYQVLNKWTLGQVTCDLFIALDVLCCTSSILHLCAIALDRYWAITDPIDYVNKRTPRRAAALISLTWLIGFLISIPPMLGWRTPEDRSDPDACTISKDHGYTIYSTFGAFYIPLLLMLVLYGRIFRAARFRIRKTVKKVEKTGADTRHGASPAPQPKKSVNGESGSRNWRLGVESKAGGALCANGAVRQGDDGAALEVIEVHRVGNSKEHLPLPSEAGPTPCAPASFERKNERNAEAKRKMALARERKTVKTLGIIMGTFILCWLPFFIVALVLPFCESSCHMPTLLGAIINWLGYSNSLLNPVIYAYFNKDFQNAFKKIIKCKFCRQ
Kind of series: [3H] 8-OHDPAT displacement, 5-HT1A receptor affinity. The class given is binding. The following applies: displacement of [3H] 8-OHDPAT; CHO cells stably transfected with human 5-HT1A receptors. The text has this: High affinity for the serotonin 5-HT1A receptor was established by testing the claimed compound's ability to displace [^3H] 8-OHDPAT (dipropylaminotetralin) from the 5-HT1A serotonin receptor following a modification of the procedure of Hall et al., J. Neurochem. 44, 1685 (1985) which utilizes CHO cells stably transfected with human 5-HT1A receptors.

Series [3] addresses T3, cloned human 5-HT1A receptors (Homo sapiens, UniProt P08908).
T3 construct: expressed in transfected cells
T3 sequence (P08908 1-422): T2 sequence (P08908 1-422)
As to the kind of experiment: 35S-GTPγS binding assay, 5-HT1A function. In kind it is biochemical. The following applies: for EC50: 35S-GTPγS binding to membranes containing cloned human 5-HT1A receptors; for Emax: maximum stimulatory effect on 35S-GTPγS binding, value in parentheses. How it is done: Agonist activity at 5-HT1A receptors was established by using a ^35S-GTPγS binding assay similar to that used by Lazareno and Birdsall (Br. J. Pharmacol. 109: 1120, 1993), in which the test compound's ability to affect the binding of ^35S-GTPγS to membranes containing cloned human 5-HT1A receptors was determined. Agonists produce an increase in binding whereas antagonists produce no increase but rather reverse the effects of the standard agonist 8-OHDPAT. The test compound's maximum stimulatory effect is represented as the Emax, while its potency is defined by the EC50.

T1 sequence (P31652 whole entry): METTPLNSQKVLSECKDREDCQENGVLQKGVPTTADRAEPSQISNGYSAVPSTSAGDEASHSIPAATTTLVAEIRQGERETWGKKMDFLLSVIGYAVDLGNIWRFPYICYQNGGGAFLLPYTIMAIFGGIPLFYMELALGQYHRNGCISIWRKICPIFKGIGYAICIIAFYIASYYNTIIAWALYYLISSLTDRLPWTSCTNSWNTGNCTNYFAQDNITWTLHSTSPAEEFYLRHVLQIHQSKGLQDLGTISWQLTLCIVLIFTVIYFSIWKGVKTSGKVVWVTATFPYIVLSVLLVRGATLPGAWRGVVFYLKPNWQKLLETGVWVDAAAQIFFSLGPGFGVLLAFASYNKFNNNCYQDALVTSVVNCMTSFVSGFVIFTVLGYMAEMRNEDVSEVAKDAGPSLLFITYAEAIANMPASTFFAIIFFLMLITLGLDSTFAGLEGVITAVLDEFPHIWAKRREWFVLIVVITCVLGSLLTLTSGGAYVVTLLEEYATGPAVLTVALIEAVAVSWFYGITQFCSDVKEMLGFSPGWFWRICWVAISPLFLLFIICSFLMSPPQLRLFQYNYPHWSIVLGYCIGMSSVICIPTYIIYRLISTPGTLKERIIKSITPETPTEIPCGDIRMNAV

In turn, `Fc1ccc2[nH]cc(C3=CCN(C[C@H]4CCc5ccc6ncccc6c5O4)CC3)c2c1` [Example 3, (6R)-6-[4-(5-Fluoro-1H-indol-3-yl)-3,6-dihydro-2H-pyridin-1-ylmethyl]-7,8-dihydro-6H-5-oxa-1aza-phenanthrene] registered a Ki in series [1] of 6 nM. Besides, the Ki in series [2] was 82.3 nM. In series [3], it took 78.9 nM to reach a half-maximal effect (EC50) and the Emax was found to be 52%.
`Fc1ccc2[nH]cc(C3=CCN(C[C@@H]4CCc5ccc6ncccc6c5O4)CC3)c2c1` (as salt: oxalate) [Example 2, (6S)-6-[4-(5-Fluoro-1H-indol-3-yl)-3,6-dihydro-2H-pyridin-1-ylmethyl]-7,8-dihydro-6H-5-oxa-1aza-phenanthrene]: the melting point is 210 °C.
Consider `Fc1ccc2[nH]cc(C3=CCN(CC4CCc5ccc6ncccc6c5O4)CC3)c2c1` (centres unmarked) [Example 1, 6-[4-(5-Fluoro-1H-indol-3-yl)-3,6-dihydro-2H-pyridin-1-ylmethyl]-7,8-dihydro-6H-5-oxa-1aza-phenanthrene], for which the results for the Ki in series [1] and in series [2] were 8 nM and 60.9 nM, respectively. For the same molecule, the EC50 in series [3] worked out at 103 nM. For the same molecule, the Emax in series [3] worked out at 49%.
Consider `Fc1ccc2[nH]cc(C3=CCN(C[C@@H]4CCc5ccc6ncccc6c5O4)CC3)c2c1` [Example 2, (6S)-6-[4-(5-Fluoro-1H-indol-3-yl)-3,6-dihydro-2H-pyridin-1-ylmethyl]-7,8-dihydro-6H-5-oxa-1aza-phenanthrene], for which the values for the inhibition constant (Ki) in series [1] and in series [2] were 5.96 nM and 88.6 nM, respectively. Also, the Emax in series [3] was determined as 5%.
Molecule `Fc1ccc2[nH]cc(C3=CCN(C[C@H]4CCc5ccc6ncccc6c5O4)CC3)c2c1` (as salt: fumarate) [Example 3, (6R)-6-[4-(5-Fluoro-1H-indol-3-yl)-3,6-dihydro-2H-pyridin-1-ylmethyl]-7,8-dihydro-6H-5-oxa-1aza-phenanthrene] showed a melting point of 210 °C.
Same read-out and setting: then `Fc1ccc2[nH]cc(C3=CCN(CC4CCc5ccc6ncccc6c5O4)CC3)c2c1` (centres unmarked) (as salt: oxalate) [Example 1, 6-[4-(5-Fluoro-1H-indol-3-yl)-3,6-dihydro-2H-pyridin-1-ylmethyl]-7,8-dihydro-6H-5-oxa-1aza-phenanthrene], with 148 °C.
